Assays:
AuroraA-TPX2 = target: T1, AuroraA-TPX2 (Homo sapiens, UniProt O14965); assay: AuroraA-TPX2 Homogeneous Time Resolved Fluorescent (HTRF) kinase assay; format: biochemical; conditions: average; read-out: AurA_IC50_IP (uM Avg)
T1 construct: 20 μL of AuroraA-TPX2 KD GST for a final volume of about 41 μL; GST
T1 sequence (O14965 133-383 limits assumed): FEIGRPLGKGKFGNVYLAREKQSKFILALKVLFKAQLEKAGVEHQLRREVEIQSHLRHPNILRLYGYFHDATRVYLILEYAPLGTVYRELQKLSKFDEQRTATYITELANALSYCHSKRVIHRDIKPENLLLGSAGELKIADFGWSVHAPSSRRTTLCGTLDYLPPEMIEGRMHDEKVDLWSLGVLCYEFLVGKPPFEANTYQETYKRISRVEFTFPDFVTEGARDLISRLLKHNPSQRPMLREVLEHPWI
T1 sequence (Q9ULW0 1-43 partner limits assumed): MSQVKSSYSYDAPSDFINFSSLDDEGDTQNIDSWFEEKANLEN
Summary of the method: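 HTRF read-out (Eu 615 nm to APC 655 nm) of phosphorylated biotin-PLK, detected with 0.02 nM europium anti-phosphoPLK antibody and 0.0005 mg/mL SA-APC after overnight equilibration.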

AuroraB = target: T2, AuroraB (Homo sapiens, UniProt Q96GD4); assay: AuroraB Homogeneous Time Resolved Fluorescent (HTRF) kinase assay; format: biochemical; conditions: average; read-out: AurB_IC50_IP (uM Avg)
T2 construct: 20 μL of AuroraB FL H is for a final volume of 41 μL; His
Summary of the method: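 Read-out is time-resolved FRET between europium anti-phospho-H3 antibody and streptavidin-APC, added in EDTA buffer to stop the reaction and equilibrated about 60 min (ex 320, em 615 and 655 nm). Preceding reaction: ~90 min, full-length enzyme, ATP, 0.1 μM biotin-Histone H3 substrate, Mg/Mn HEPES buffer pH 7.5.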

T2 sequence (Q96GD4 whole entry): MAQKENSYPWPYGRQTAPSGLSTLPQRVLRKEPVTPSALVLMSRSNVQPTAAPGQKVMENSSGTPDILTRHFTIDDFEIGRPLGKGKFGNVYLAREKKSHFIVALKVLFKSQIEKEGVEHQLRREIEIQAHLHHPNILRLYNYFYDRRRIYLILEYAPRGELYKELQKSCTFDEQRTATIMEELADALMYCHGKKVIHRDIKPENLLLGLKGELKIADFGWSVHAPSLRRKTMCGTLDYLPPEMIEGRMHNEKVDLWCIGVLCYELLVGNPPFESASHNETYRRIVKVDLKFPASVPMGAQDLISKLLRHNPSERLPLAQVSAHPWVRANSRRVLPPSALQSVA

COc1cnc2c(Oc3ccc(Nc4nnc(-c5ccc(SC)cc5)c5ccccc45)cc3)ccnc2c1 [compound 237, N-(4-((7-(methyloxy)-1,5-naphthyridin-4-yl)oxy)phenyl)-4-(4-(methylthio)phenyl)-1-phthalazinamine]
IC50 (AuroraA-TPX2): 0.038 µM
IC50 (AuroraB): 0.005 µM

COc1ccc2nccc(Oc3ccc(Nc4nnc(-c5ccccc5)c5ccccc45)cc3)c2c1 [compound 238, N-(4-((6-(methyloxy)-4-quinolinyl)oxy)phenyl)-4-phenyl-1-phthalazinamine]
IC50 (AuroraA-TPX2): 0.265 µM
IC50 (AuroraB): 0.005 µM

COc1ccc2nccc(Oc3ccc(Nc4nnc(-c5ccc(Cl)cc5)c5ccccc45)cc3)c2c1 [compound 239, 4-(4-chlorophenyl)-N-(4-((6-(methyloxy)-4-quinolinyl)oxy)phenyl)-1-phthalazinamine]
IC50 (AuroraA-TPX2): 0.12 µM
IC50 (AuroraB): 0.008 µM

COc1cccc(-c2nnc(Nc3ccc(Oc4ccnc5cc(-c6cncn6C)sc45)cc3)c3ccccc23)n1 [compound 240, N-(4-((2-(1-methyl-1H-imidazol-5-yl)thieno[3,2-b]pyridin-7-yl)oxy)phenyl)-4-(6-(methyloxy)-2-pyridinyl)-1-phthalazinamine]
IC50 (AuroraA-TPX2): 0.006 µM
IC50 (AuroraB): 0.001 µM

Clc1ccc(-c2nnc(Nc3ccc(Oc4ccnc5[nH]ccc45)cc3)c3ccccc23)cc1 [compound 241, 4-(4-chlorophenyl)-N-(4-(1H-pyrrolo[2,3-b]pyridin-4-yloxy)phenyl)-1-phthalazinamine]
IC50 (AuroraA-TPX2): 0.089 µM
IC50 (AuroraB): 0.001 µM

N#Cc1ccc2c(Oc3ccc(Nc4nnc(-c5ccc(Cl)cc5)c5ccccc45)cc3)ccnc2c1 [compound 242, 4-((4-((4-(4-chlorophenyl)-1-phthalazinyl)amino)phenyl)oxy)-7-quinolinecarbonitrile]
IC50 (AuroraA-TPX2): 0.173 µM
IC50 (AuroraB): 0.022 µM

COc1cnc2c(Oc3ccc(Nc4nnc(-c5ccc(C)c(F)c5)c5ccccc45)cc3)ccnc2c1 [compound 243, 4-(3-fluoro-4-methylphenyl)-N-(4-((7-(methyloxy)-1,5-naphthyridin-4-yl)oxy)phenyl)-1-phthalazinamine]
IC50 (AuroraA-TPX2): 0.014 µM
IC50 (AuroraB): 0.005 µM

Brc1cnc2c(Oc3ccc(Nc4nnc(-c5ccccc5)c5ccccc45)cc3)ccnc2c1 [compound 245, N-(4-((7-bromo-1,5-naphthyridin-4-yl)oxy)phenyl)-4-phenyl-1-phthalazinamine]
IC50 (AuroraA-TPX2): 0.153 µM
IC50 (AuroraB): 0.006 µM

COc1cnc2c(Oc3ccc(Nc4nnc(-c5ccc(F)c(C)c5)c5ccccc45)cc3)ccnc2c1 [compound 246, 4-(4-fluoro-3-methylphenyl)-N-(4-((7-(methyloxy)-1,5-naphthyridin-4-yl)oxy)phenyl)-1-phthalazinamine]
IC50 (AuroraA-TPX2): 0.032 µM
IC50 (AuroraB): 0.008 µM

COc1cnc2c(N(C)c3ccc(Nc4nnc(-c5cc(C)cs5)c5ccccc45)cc3)ccnc2c1 [compound 247, N-methyl-N-(7-(methyloxy)-1,5-naphthyridin-4-yl)-N′-(4-(4-methyl-2-thienyl)-1-phthalazinyl)-1,4-benzenediamine]
IC50 (AuroraA-TPX2): 0.219 µM
IC50 (AuroraB): 0.032 µM

Cn1cncc1-c1cc2nccc(Oc3ccc(Nc4nnc(-c5ccc(Cl)cc5)c5ccccc45)cc3)c2s1 [compound 249, 4-(4-chlorophenyl)-N-(4-((2-(1-methyl-1H-imidazol-5-yl)thieno[3,2-b]pyridin-7-yl)oxy)phenyl)-1-phthalazinamine]
IC50 (AuroraA-TPX2): 0.004 µM
IC50 (AuroraB): 0.001 µM

Clc1ccc(-c2nnc(Nc3ccc(Oc4ccnc5ccsc45)cc3)c3ccccc23)cc1 [compound 250, 4-(4-chlorophenyl)-N-(4-(thieno[3,2-b]pyridin-7-yloxy)phenyl)-1-phthalazinamine]
IC50 (AuroraA-TPX2): 0.094 µM
IC50 (AuroraB): 0.003 µM

c1ccc(-c2nnc(Nc3ccc(Oc4ccnc5ccsc45)cc3)c3ccccc23)cc1 [compound 251, 4-phenyl-N-(4-(thieno[3,2-b]pyridin-7-yloxy)phenyl)-1-phthalazinamine]
IC50 (AuroraA-TPX2): 0.376 µM
IC50 (AuroraB): 0.004 µM

Cc1ccc(-c2nnc(Nc3ccc(Oc4ccnc5ccsc45)cc3)c3ccccc23)cc1 [compound 252, 4-(4-methylphenyl)-N-(4-(thieno[3,2-b]pyridin-7-yloxy)phenyl)-1-phthalazinamine]
IC50 (AuroraA-TPX2): 0.077 µM
IC50 (AuroraB): 0.005 µM

COc1cnc2c(Oc3ccc(Nc4nnc(-c5ccc(Cl)cc5OC)c5ccccc45)cc3)ccnc2c1 [compound 253, 4-(4-chloro-2-(methyloxy)phenyl)-N-(4-((7-(methyloxy)-1,5-naphthyridin-4-yl)oxy)phenyl)-1-phthalazinamine]
IC50 (AuroraA-TPX2): 0.173 µM
IC50 (AuroraB): 0.009 µM

COc1cc2nncc(Oc3ccc(Nc4nnc(-c5ccccc5)c5ccccc45)cc3)c2cc1OC [compound 254, N-(4-((6,7-bis(methyloxy)-4-cinnolinyl)oxy)phenyl)-4-phenyl-1-phthalazinamine]
IC50 (AuroraA-TPX2): 1.64 µM
IC50 (AuroraB): 0.253 µM

CCc1cc(-c2ccc(Cl)cc2)nnc1Nc1ccc(Oc2ccnc3cc(OC)cnc23)cc1 [compound 256, 6-(4-chlorophenyl)-4-ethyl-N-(4-((7-(methyloxy)-1,5-naphthyridin-4-yl)oxy)phenyl)-3-pyridazinamine]
IC50 (AuroraA-TPX2): 0.012 µM
IC50 (AuroraB): 0.003 µM

c1ccc(-c2nnc(Nc3ccc(Oc4ncnc5nc[nH]c45)cc3)c3ccccc23)cc1 [compound 257, 4-phenyl-N-(4-(7H-purin-6-yloxy)phenyl)-1-phthalazinamine]
IC50 (AuroraA-TPX2): 0.868 µM
IC50 (AuroraB): 0.129 µM

COc1cnc2c(Oc3ccc(Nc4nnc(-c5cccc(N(C)C)c5)c5ccccc45)cc3)ccnc2c1 [compound 258, 4-(3-(dimethylamino)phenyl)-N-(4-((7-(methyloxy)-1,5-naphthyridin-4-yl)oxy)phenyl)-1-phthalazinamine]
IC50 (AuroraA-TPX2): 0.005 µM
IC50 (AuroraB): 0.002 µM

O=C(c1cc2nccc(Oc3ccc(Nc4nnc(-c5ccc(Cl)cc5)c5ccccc45)cc3)c2s1)N1CCOCC1 [compound 259, 4-(4-chlorophenyl)-N-(4-((2-(4-morpholinylcarbonyl)thieno-[3,2-b]pyridin-7-yl)oxy)phenyl)-1-phthalazinamine]
IC50 (AuroraA-TPX2): 0.023 µM
IC50 (AuroraB): 0.006 µM

COc1cnc2c(Oc3ccc(Nc4nnc(-c5cc(C)c(C)s5)c5ccccc45)cc3)ccnc2c1 [compound 260, 4-(4,5-dimethyl-2-thienyl)-N-(4-((7-(methyloxy)-1,5-naphthyridin-4-yl)oxy)phenyl)-1-phthalazinamine]
IC50 (AuroraA-TPX2): 0.008 µM
IC50 (AuroraB): 0.009 µM

COc1cnc2c(Oc3ccc(Nc4nnc(-c5c(C)nn(C)c5C)c5ccccc45)cc3)ccnc2c1 [compound 261, N-(4-((7-(methyloxy)-1,5-naphthyridin-4-yl)oxy)phenyl)-4-(1,3,5-trimethyl-1H-pyrazol-4-yl)-1-phthalazinamine]
IC50 (AuroraA-TPX2): 1.61 µM
IC50 (AuroraB): 0.156 µM

COc1cnc2c(Oc3ccc(Nc4nnc(-c5ccc([S+](C)[O-])cc5)c5ccccc45)cc3)ccnc2c1 (stereo not drawn) [compound 262, N-(4-((7-(methyloxy)-1,5-naphthyridin-4-yl)oxy)phenyl)-4-(4-(methylsulfinyl)phenyl)-1-phthalazinamine]
IC50 (AuroraA-TPX2): 0.102 µM
IC50 (AuroraB): 0.006 µM

COc1cnc2c(Oc3ccc(Nc4nnc(-c5ccc(S(C)(=O)=O)cc5)c5ccccc45)cc3)ccnc2c1 [compound 263, N-(4-((7-(methyloxy)-1,5-naphthyridin-4-yl)oxy)phenyl)-4-(4-(methylsulfonyl)phenyl)-1-phthalazinamine]
IC50 (AuroraA-TPX2): 0.036 µM
IC50 (AuroraB): 0.002 µM

c1ccc(-c2nnc(Nc3ccc(Oc4ccnc5ccc(N6CCOCC6)cc45)cc3)c3ccccc23)cc1 [compound 264, N-(4-((6-(4-morpholinyl)-4-quinolinyl)oxy)phenyl)-4-phenyl-1-phthalazinamine]
IC50 (AuroraA-TPX2): 0.139 µM
IC50 (AuroraB): 0.016 µM

N#Cc1cnc2c(Oc3ccc(Nc4nnc(-c5ccc(Cl)cc5)c5ccccc45)cc3)ccnc2c1 [compound 265, 8-((4-((4-(4-chlorophenyl)-1-phthalazinyl)amino)phenyl)oxy)-1,5-naphthyridine-3-carbonitrile]
IC50 (AuroraA-TPX2): 0.113 µM
IC50 (AuroraB): 0.009 µM

Clc1ccc(-c2nnc(Nc3ccc(Oc4ncnc5[nH]cnc45)cc3)c3ccccc23)cc1 [compound 266, 4-(4-chlorophenyl)-N-(4-(9H-purin-6-yloxy)phenyl)-1-phthalazinamine]
IC50 (AuroraA-TPX2): 0.679 µM
IC50 (AuroraB): 0.045 µM

COc1cnc2c(Oc3ccc(Nc4nnc(-c5ccc(C)nc5)c5ccccc45)cc3)ccnc2c1 [compound 268, N-(4-((7-(methyloxy)-1,5-naphthyridin-4-yl)oxy)phenyl)-4-(6-methyl-3-pyridinyl)-1-phthalazinamine]
IC50 (AuroraA-TPX2): 0.064 µM
IC50 (AuroraB): 0.003 µM

COc1ccc2nccc(Oc3ccc(Nc4nnc(-c5cc(C)cs5)c5ccccc45)cc3)c2c1 [compound 269, N-(4-((6-(methyloxy)-4-quinolinyl)oxy)phenyl)-4-(4-methyl-2-thienyl)-1-phthalazinamine]
IC50 (AuroraA-TPX2): 0.049 µM
IC50 (AuroraB): 0.006 µM

CCN(CC)C(=O)c1cc2nccc(Oc3ccc(Nc4nnc(-c5ccc(Cl)cc5)c5ccccc45)cc3)c2s1 [compound 270, 7-((4-((4-(4-chlorophenyl)-1-phthalazinyl)amino)phenyl)oxy)-N,N-diethylthieno[3,2-b]pyridine-2-carboxamide]
IC50 (AuroraA-TPX2): 0.084 µM
IC50 (AuroraB): 0.01 µM

Source: US8557816B2, “Aurora kinase modulators and method of use” (Amgen Inc., priority 2007, dated 2013)
